Measured values as given in the supplement of paper PMC11208160.

Assay: recombinant UMI read abundance after kanamycin selection (control-corrected) (log10(CPM+1)); higher = more efficient recombination; extreme values may be limits of the assay; sequences stand for … in AGTGCAGAGAAAATCGGCCAGTTTTCTCTGCCTGCAGTCCGCATGCCGTGGGACCCCTTGGGTTCTAACCTGTTGCCTAGATTTATGCAGCGGACTGCCTTTCTCCCAAAGTGATAAACCGG…AGGTTGGTTTCACT; site = the 11-nt donor
Procedure, shortened: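 Two replicates each of selected and unselected plating were used in this pooled Escherichia coli screen of donor and donor-binding-loop pairs for the IS621 bridge recombinase. Selection was with IPTG (0.07 mM) and kanamycin. Counts of recombinant UMIs, amplified across the donor–target junction, were converted to CPM, averaged, scaled by control-derived factors and reported as log10(CPM+1).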
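Further: IS621 bridge recombinase in Escherichia coli cells against a fixed T5 target plasmid.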

Point of comparison: “CGGAAACCATGGACCGGTTTTCCCGGTAATCCGTATTTGTT (site CGGAAGCCTAA)”, “recombinant UMI read abundance (log10)” value 0.00793. Against it:
- CGCGGAGCATGGACCGGTTTTCCCGGTAATCCGTATTTGGC (site CGCGGAGCTGC) — higher, 0.884
- CGCGGAGCATGGACCGGTTTTCCCGGTAATCCGTATTTGGT (site CGCGGAGCTAC) — higher, 1.14
- CGCGTTCCATGGACCGGTTTTCCCGGTAATCCGTATTTGGA (site CGCGTTCCTTC) — within 0.2 log units, 0
- CGCTCCTCATGGACCGGTTTTCCCGGTAATCCGTATTTGCT (site CGATCATCTAG) — within 0.2 log units, 0
- CGCTCCTCATGGACCGGTTTTCCCGGTAATCCGTATTTGCT (site CGCTCCTCTAG) — higher, 3.07
- CGCTCCTCATGGACCGGTTTTCCCGGTAATCCGTATTTGTG (site CGCTCCTCTCA) — higher, 0.976
- CGCTTAGCATGGACCGGTTTTCCCGGTAATCCGTATTTGTA (site CGCTTAGCTTA) — higher, 1.88
- CGCTTTCCATGGACCGGTTTTCCCGGTAATCCGTATTTGGT (site CGCTTTCCTAC) — within 0.2 log units, 0
- CGCTTTGCATGGACCGGTTTTCCCGGTAATCCGTATTTGGT (site CGCTTTGCTAC) — higher, 1.08
- CGGAAACCATGGACCGGTTTTCCCGGTAATCCGTATTTGAT (site CGGAAACCTAT) — within 0.2 log units, 0
- CGGAAACCATGGACCGGTTTTCCCGGTAATCCGTATTTGAT (site CGGCAACCTAT) — within 0.2 log units, 0.00975
- CGGAAACCATGGACCGGTTTTCCCGGTAATCCGTATTTGAT (site CGGGAACCTAT) — within 0.2 log units, 0
- CGGAAACCATGGACCGGTTTTCCCGGTAATCCGTATTTGAT (site CGGTAACCTAT) — within 0.2 log units, 0
- CGGAAACCATGGACCGGTTTTCCCGGTAATCCGTATTTGTA (site CGGAAACCTTA) — within 0.2 log units, 0
- CGGAAACCATGGACCGGTTTTCCCGGTAATCCGTATTTGTA (site CGGAATCCTAA) — within 0.2 log units, 0
- CGGAAACCATGGACCGGTTTTCCCGGTAATCCGTATTTGTT (site CGGAAACCTAA) — within 0.2 log units, 0
- CGGAAACCATGGACCGGTTTTCCCGGTAATCCGTATTTGTT (site CGGAACCCTAA) — within 0.2 log units, 0.00618
- CGGAAACCATGGACCGGTTTTCCCGGTAATCCGTATTTGTT (site CGGAATCCTAA) — within 0.2 log units, 0
- CGGAAATCATGGACCGGTTTTCCCGGTAATCCGTATTTGTT (site CGGAAATCTAA) — higher, 2.29
- CGGAAATCATGGACCGGTTTTCCCGGTAATCCGTATTTGTT (site CGGAATCCTAA) — within 0.2 log units, 0
- CGGAACCCATGGACCGGTTTTCCCGGTAATCCGTATTTGTT (site CGGAAACCTAA) — within 0.2 log units, 0.0541
- CGGAACCCATGGACCGGTTTTCCCGGTAATCCGTATTTGTT (site CGGAACCCTAA) — higher, 0.964
- CGGAACCCATGGACCGGTTTTCCCGGTAATCCGTATTTGTT (site CGGAAGCCTAA) — within 0.2 log units, 0.00321
- CGGAACCCATGGACCGGTTTTCCCGGTAATCCGTATTTGTT (site CGGAATCCTAA) — higher, 0.208
- CGGAAGACATGGACCGGTTTTCCCGGTAATCCGTATTTGAA (site AGGAAGACTTG) — within 0.2 log units, 0
- CGGAAGACATGGACCGGTTTTCCCGGTAATCCGTATTTGAA (site CGGAAGACTTT) — higher, 2.24
- CGGAAGCCATGGACCGGTTTTCCCGGTAATCCGTATTTGTT (site CGGAAACCTAA) — within 0.2 log units, 0
- CGGAAGCCATGGACCGGTTTTCCCGGTAATCCGTATTTGTT (site CGGAACCCTAA) — within 0.2 log units, 0.00486
- CGGAAGCCATGGACCGGTTTTCCCGGTAATCCGTATTTGTT (site CGGAAGCCTAA) — higher, 0.218
- CGGAAGCCATGGACCGGTTTTCCCGGTAATCCGTATTTGTT (site CGGAATCCTAA) — within 0.2 log units, 0
- CGGAAGTCATGGACCGGTTTTCCCGGTAATCCGTATTTGCC (site CGGAAGTCTGG) — higher, 2.88
- CGGAAGTCATGGACCGGTTTTCCCGGTAATCCGTATTTGCC (site CGGCAGTCTGG) — within 0.2 log units, 0
- CGGAAGTCATGGACCGGTTTTCCCGGTAATCCGTATTTGCC (site CGGGAGTCTGG) — higher, 0.686
- CGGAAGTCATGGACCGGTTTTCCCGGTAATCCGTATTTGCC (site CGGTAGTCTGG) — higher, 1.08
- CGGAATACATGGACCGGTTTTCCCGGTAATCCGTATTTGAT (site CGGAATACTAT) — higher, 2.16
- CGGAATACATGGACCGGTTTTCCCGGTAATCCGTATTTGAT (site CGGAATCCTAA) — within 0.2 log units, 0
- CGGAATCCATGGACCGGTTTTCCCGGTAATCCGTATTTGCT (site CGGAATCCTAA) — within 0.2 log units, 0.106
